# Laboratory results published in patent publication US20230330254A1 (Regeneron Pharmaceuticals, Inc., priority 2022, published 2023).
# *1 amine or outer side, *2 acyl side, *3 side chain or, on linkers, in order; H or OH if unused. Where a SMILES comes first, the peptide text is derived from it. Side-chain parts run from the residue outwards. [ ]: non-standard residue; d: D form. The star is where a group is joined. PEG24 = NCCOCCOCCOCCOCCOCCOCCOCCOCCOCCOCCOCCOCCOCCOCCOCCOCCOCCOCCOCCOCCOCCOCCOCCOCCC(=O)O; Bip(2'-Et-4'-O(CH2)4NH2) = CCc1cc(OCCCCN[*:3])ccc1-c1ccc(C[C@H](N[*:1])C(=O)[*:2])cc1; Bip(2'-Et,4'-O(CH2)4N3) = CCc1cc(OCCCCN=[N+]=[N-])ccc1-c1ccc(C[C@H](N)C(=O)O)cc1; Malonyl(2,2-Me2,histaminyl) = CC(C)(C(=O)NCCc1cnc[nH]1)C(=O)*; Nva(5-(3,5-Me2Ph)) = Cc1cc(C)cc(CCC[C@H](N)C(=O)O)c1; Ala(1H-tetrazol-5-yl) = N[C@@H](Cc1nnn[nH]1)C(=O)O; αMePhe(2-F) = C[C@](N)(Cc1ccccc1F)C(=O)O; DBCO = C1#Cc2ccccc2N(*)Cc2ccccc21; Suc = O=C(CCC(=O)[*:2])[*:1]
# How the values were obtained:
# HEK293/CRE-Luc cells [1] = assay: Luciferase reporter assay, HEK293/CRE-Luc cells without GLP1R (Example 17); type: cell-based, human; settings: HEK293/CRE-Luc cells without hGLP1R, payloads and linker-payloads
# Outline: (§1)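 HEK293 cells carrying a CRE-driven firefly luciferase reporter were exposed to 3-fold serial dilutions of payloads or linker-payloads (12 points, 0.2% DMSO final) for 4–6 h, then luminescence was read. EC50 came from a four-parameter logistic fit; S/N is top RLU over untreated wells, and relative potency and S/N are referenced to M2361.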
# human GLP1R [2] = target: T1, human GLP1R (Homo sapiens, UniProt P43220); assay: Luciferase reporter assay, HEK293/CRE-Luc/hGLP1R cells (Example 11); type: cell-based; parameters: engineered to express full-length human GLP1R, cynomolgus GLP1R; expressed in transfected cells; host or cells: HEK293/CRE-Luc
# HEK293/CRE-Luc cells [3] = assay: Luciferase reporter assay, HEK293/CRE-Luc cells without hGLP1R (Example 11); type: cell-based, human; settings: Experiment A
# Outline: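 Counter-screen in HEK293 cells carrying CRE-driven firefly luciferase without hGLP1R; 3-fold serial dilutions of payloads or linker-payloads at 0.2% final DMSO, 4–6 h.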
# human GLP1R [4] = target: T1, human GLP1R; assay: CRE-luciferase reporter assay, HEK293/Myc-hGLP1R/Cre-Luc (Example 9); type: cell-based; parameters: engineered to express full-length human GLP1R, cynomolgus GLP1R; expressed in transfected cells; host or cells: HEK293/CRE-Luc; settings: Table 9; 5.5 h; read-out: HEK293/Myc-hGLP1R/Cre-Luc EC50
# Procedure: To test the activity of GLP1R agonist payloads and GLP1R agonist linker-payloads (LPs) in vitro, a cell-based cAMP responsive luciferase reporter assay was developed.
# Cells were incubated overnight at 37° C. in 5% CO2. […] Plates were incubated for 5.5 h at 37° C. in 5% CO2. For end-point measurement, 100 μL/well of One-Glo reagent (Promega, #E6051) was added and plates were kept at room temperature for 5-10 minutes. Luciferase activity was measured on Envision Multilabel Plate Reader (Perkin Elmer) in Luminescent mode. The relative light units (RLU) values were obtained and the results were analyzed using nonlinear regression with GraphPad Prism software (GraphPad).
# human GLP1R [5] = target: T1, human GLP1R; assay: Luciferase reporter assay, HEK293/CRE-Luc/hGLP1R (Example 17); type: cell-based; parameters: engineered to express full-length human GLP1R, cynomolgus GLP1R; expressed in transfected cells; host or cells: HEK293/CRE-Luc; settings: HEK293/CRE-Luc/hGLP1R
# Outline: as §1
# [6] = Plasma stability of payloads and linker-payloads, human plasma; type: in vitro ADME; settings: 2 μM, 37° C., read-out: Human plasma stability assay T½ (converted)
# Outline: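 Pooled plasma, pH adjusted to 7.4±0.1 where needed, spiked to 2 μM compound (duplicate) and incubated at 37 °C. At each time point, protein was precipitated with ACN/MeOH stop solution containing internal standards; remaining compound quantified in supernatant by LC-MS/MS.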
# [7] = Plasma stability of payloads and linker-payloads, mouse plasma; type: in vitro ADME; settings: for half-life at 2 µM: mouse, pooled plasma
# Procedure: The plasma stability of payloads and linker payloads of the disclosure were measured. For the assay, pooled frozen plasma (human, mouse or monkey) was thawed in cold water or a 37° C. water bath prior to experiment. Plasma was centrifuged at 4000 rpm for 5 min if any clots were observed, they were subsequently removed. If required, the pH was adjusted to 7.4±0.1. For the preparation of compounds and positive controls, a 1 mM intermediate solution was prepared by diluting 10 μL of their stock solution with 90 μL DMSO; a 1 mM intermediate solution of the positive control (Propantheline) was prepared by diluting 10 μL of its stock solution with 90 μL ultrapure water. Subsequently, 100 μM dosing solution for each compound was prepared by diluting 20 μL of the intermediate solution (1 mM) with 180 μL 45% MeOH/H2O. 98 μL of plasma was spiked with 2 μL of dosing solution (100 μM) to achieve the final concentration of 2 μM in duplicate. Samples were then incubated at 37° C. in a water bath. […] At each time point, 400 μL of stop solution (200 ng/mL tolbutamide plus 200 ng/mL labetalol in 50% ACN/MeOH) was added to precipitate protein and mixed thoroughly. Sample plates were then centrifuged at 4,000 rpm for 10 min. An aliquot of supernatant (50 μL) was transferred from each well and mixed with 100 μL ultrapure water. The samples were then shaken at 800 rpm for approximately 10 min before submitting for LC-MS/MS analysis.
# human GLP1R [8] = target: T1, human GLP1R; assay: Human GLP1R cAMP accumulation assay; type: cell-based; parameters: HEK293 cells over-expressing full length human GLP-1R were utilized; expressed in transfected cells; host or cells: HEK293 (HEK293/hGLP1R)
# Outline: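 cAMP accumulation measured after 30 min at 23° C, with 500 μM IBMX in HEPES-buffered HBSS plus 0.1% BSA, in HEK293 cells expressing full-length hGLP-1R. Levels read by D2-cAMP/antibody immunoassay via standard curve, scaled between low and high controls. EC50 fitted four-parameter over a 10-point curve.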
# [9] = Liver microsome stability; type: in vitro ADME, human; settings: human, microsomes, Table 7
# Procedure: To assess the in vitro ADME properties of the LP, microsomal stability assay was performed to determine intrinsic clearance, and plasma protein binding assay was performed to understand the distribution potential.
# [10] = Plasma protein binding (equilibrium dialysis); type: in vitro ADME, human; settings: Human Plasma; 4 hours dialysis
# Procedure: The pH value of the resulting plasma was checked
# (<http://www.htdialysis.com/>).
# DMSO working solutions were prepared at 400 μM. […] These samples were transferred into new 96-well plates.
# [11] = relative to M2361 of the same experiment
# T1 sequence (P43220 24-463): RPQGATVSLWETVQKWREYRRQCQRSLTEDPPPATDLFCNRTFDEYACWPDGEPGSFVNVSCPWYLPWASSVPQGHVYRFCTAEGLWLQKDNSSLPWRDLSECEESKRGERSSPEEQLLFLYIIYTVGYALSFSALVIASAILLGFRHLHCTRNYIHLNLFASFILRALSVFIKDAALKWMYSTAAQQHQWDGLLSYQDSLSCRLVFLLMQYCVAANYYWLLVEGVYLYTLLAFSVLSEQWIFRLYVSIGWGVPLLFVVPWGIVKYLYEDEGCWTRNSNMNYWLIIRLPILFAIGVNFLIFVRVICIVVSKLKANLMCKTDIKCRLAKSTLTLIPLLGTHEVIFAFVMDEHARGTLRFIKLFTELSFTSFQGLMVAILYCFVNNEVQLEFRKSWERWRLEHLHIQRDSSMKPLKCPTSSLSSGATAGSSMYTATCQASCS
compound,measurement,setting,value
"CCc1cc(OCCCCNC(=O)CCOCCOCCOCCOCCOCCOCCOCCOCCOCCOCCOCCOCCOCCOCCOCCOCCOCCOCCOCCOCCOCCOCCOCCOCCNC(=O)CCC(=O)N2Cc3ccccc3C#Cc3ccccc32)ccc1-c1ccc(C[C@H](NC(=O)[C@H](CC(=O)O)NC(=O)[C@H](CO)NC(=O)[C@@H](NC(=O)[C@](C)(Cc2ccccc2F)NC(=O)[C@@H](NC(=O)CNC(=O)[C@H](Cc2nn[nH]n2)NC(=O)C(C)(C)C(=O)NCCc2cnc[nH]2)[C@@H](C)O)[C@@H](C)O)C(=O)N[C@@H](CCCc2cc(C)cc(C)c2)C(N)=O)cc1 [LP4, DIBAC-suc-PEG24-P9] ({Malonyl(2,2-Me2,histaminyl)}-[Ala(1H-tetrazol-5-yl)]GT[αMePhe(2-F)]TSD[Bip(2'-Et-4'-O(CH2)4NH2)]([PEG24-Suc-DBCO])[Nva(5-(3,5-Me2Ph))]-NH2)",S/N,HEK293/CRE-Luc cells [1],1.7
same,EC50,HEK293/CRE-Luc cells [1]; read-out: EC50,> 200 nM
same,EC50,"human GLP1R [2]; Table 11, Experiment A",0.127 nM
same,HEK293/CRE-LUC/hGLP1R Relative Potency (% P8 EC50),"human GLP1R [2]; Table 11, Experiment A",4.2%
same,HEK293/CRE-LUC/hGLP1R S/N,"human GLP1R [2]; Table 11, Experiment A",63.8
same,EC50,"HEK293/CRE-Luc cells [3]; Table 11, no hGLP1R expression",> 200 nM
same,HEK293/CRE-LUC S/N,"HEK293/CRE-Luc cells [3]; Table 11, no hGLP1R expression",1.7
same,EC50,human GLP1R [4],0.0715 nM
same,S/N,human GLP1R [5]; highest RLU / RLU of untreated wells,63.8
same,Relative Potency (% M2361 EC50),human GLP1R [5]; [11],4.2%
same,Relative Signal:Noise (% M2361),human GLP1R [5]; [11],97.1%
"CCc1cc(OC)ccc1-c1ccc(C[C@H](NC(=O)[C@H](CC(=O)O)NC(=O)[C@H](CO)NC(=O)[C@@H](NC(=O)[C@](C)(Cc2ccccc2F)NC(=O)[C@@H](NC(=O)CNC(=O)[C@H](Cc2nn[nH]n2)NC(=O)C(C)(C)C(=O)NCCc2cnc[nH]2)[C@@H](C)O)[C@@H](C)O)C(=O)N[C@@H](CCCc2ccc(OCCCCNC(=O)CCOCCOCCOCCOCCOCCOCCOCCOCCOCCOCCOCCOCCOCCOCCOCCOCCOCCOCCOCCOCCOCCOCCOCCOCCNC(=O)CCC(=O)N3Cc4ccccc4-c4c(nnn4CC4OC5OC6C(CO)OC(OC7C(CO)OC(OC8C(CO)OC(OC9C(CO)OC(OC%10C(CO)OC(OC4C(O)C5O)C(O)C%10O)C(O)C9O)C(O)C8O)C(O)C7O)C(O)C6O)-c4ccccc43)cc2)C(N)=O)cc1 (some centres unmarked) [LP23, cyclo-dex-trin-triazole-DIBAC-suc-PEG24-P24]",half-life at 2 µM,"[6]; pooled plasma, pH 7.4, tested time B (2 hrs per footnote)",> 288 min
same,plasma stability T½,"[7]; Mouse, assay time 2 hr, Table 5B",>4 h
same,half-life at 2 µM,"[7]; pH 7.4, Mouse, assay time 2 hr, Table 5B, read-out: plasma stability T½",> 4 h
same,half-life at 2 µM,"[7]; pH 7.4, Table 5A, mouse plasma, tested time B (2 hrs), read-out: plasma stability T½ (hr), mouse",> 4.8 h
same,EC50,human GLP1R [8],0.534 nM
"CCc1cc(OCCCCN=[N+]=[N-])ccc1-c1ccc(C[C@H](NC(=O)[C@H](CC(=O)O)NC(=O)[C@H](CO)NC(=O)[C@@H](NC(=O)[C@](C)(Cc2ccccc2F)NC(=O)[C@@H](NC(=O)CNC(=O)[C@H](Cc2nn[nH]n2)NC(=O)C(C)(C)C(=O)NCCc2cnc[nH]2)[C@@H](C)O)[C@@H](C)O)C(=O)N[C@@H](CCCc2cc(C)cc(C)c2)C(N)=O)cc1 [P8] ({Malonyl(2,2-Me2,histaminyl)}-[Ala(1H-tetrazol-5-yl)]GT[αMePhe(2-F)]TSD[Bip(2'-Et,4'-O(CH2)4N3)][Nva(5-(3,5-Me2Ph))]-NH2)",EC50,"human GLP1R [2]; Table 11, Experiment A",0.00531 nM
same,HEK293/CRE-LUC/hGLP1R Relative Potency (% P8 EC50),"human GLP1R [2]; Table 11, Experiment A",100.0%
same,HEK293/CRE-LUC/hGLP1R S/N,"human GLP1R [2]; Table 11, Experiment A",65.8
same,EC50,"human GLP1R [2]; Table 11, Experiment B",0.02 nM
same,HEK293/CRE-LUC/hGLP1R Relative Potency (% P8 EC50),"human GLP1R [2]; Table 11, Experiment B",100.0%
same,HEK293/CRE-LUC/hGLP1R S/N,"human GLP1R [2]; Table 11, Experiment B",327.9
same,EC50,"human GLP1R [2]; Table 11, Experiment D",0.0273 nM
same,HEK293/CRE-LUC/hGLP1R Relative Potency (% P8 EC50),"human GLP1R [2]; Table 11, Experiment D",100.0%
same,HEK293/CRE-LUC/hGLP1R Relative Signal:Noise (% P8),"human GLP1R [2]; Table 11, Experiment D",100.0%
same,HEK293/CRE-LUC/hGLP1R S/N,"human GLP1R [2]; Table 11, Experiment D",235.9
same,EC50,"human GLP1R [2]; Table 12, Experiment A",0.0162 nM
same,HEK293/CRE-Luc/hGLP1R Relative Potency (% P8 EC50),"human GLP1R [2]; Table 12, Experiment A",100.0%
same,HEK293/CRE-Luc/hGLP1R Relative Signal:Noise (% P8),"human GLP1R [2]; Table 12, Experiment A",100.0%
same,HEK293/CRE-Luc/hGLP1R S/N,"human GLP1R [2]; Table 12, Experiment A",64.3
same,EC50,"human GLP1R [2]; Table 12, Experiment D",0.0273 nM
same,HEK293/CRE-Luc/hGLP1R Relative Potency (% P8 EC50),"human GLP1R [2]; Table 12, Experiment D",100.0%
same,HEK293/CRE-Luc/hGLP1R Relative Signal:Noise (% P8),"human GLP1R [2]; Table 12, Experiment D",100.0%
same,HEK293/CRE-Luc/hGLP1R S/N,"human GLP1R [2]; Table 12, Experiment D",235.9
same,EC50,"HEK293/CRE-Luc cells [3]; Table 11, no hGLP1R expression",> 200 nM
same,HEK293/CRE-LUC S/N,"HEK293/CRE-Luc cells [3]; Table 11, no hGLP1R expression",1.5
same,EC50,HEK293/CRE-Luc cells [3]; Table 12,> 20 nM
same,HEK293/CRE-Luc S/N,HEK293/CRE-Luc cells [3]; Table 12,1.3
same,EC50,human GLP1R [4],0.0076 nM
same,half-life at 2 µM,"[6]; plasma, pH 7.4, tested time A (1 day per footnote)",> 3470 min
same,EC50,"human GLP1R [8]; HEK293/hGLP1R cells, Table 4, read-out: cAMP EC50",0.497 nM
C[C@]12CC[C@H]3[C@@H](CCC4=CC(=O)CC[C@@]43C)[C@@H]1CC[C@@H]2O [Testosterone],CLint scaled,[9]; read-out: CLint(liver),77.2 mL/min/kg
same,microsomal CLint,[9]; read-out: CLint(mic),85.7 µL/min/mg
CC(=O)CC(c1ccccc1)c1c(O)c2ccccc2oc1=O (centres unmarked) [Warfarin],"recovery at 4 h, 2 µM",[10],98.3%
